# Values of other authors, collected in patent US20210386367A1, “DEVICES AND SYSTEMS FOR GASTROINTESTINAL MICROBIOME DETECTION AND MANIPULATION” (Progenity, Inc., priority 2018, published 2021).
# System: Prevotella spp.
# Settings: cited from earlier work
compound,measurement,value
CO/N=C(\C(=O)N[C@@H]1C(=O)N2C(C(=O)O)=C(CSc3nc(=O)c(=O)[nH]n3C)CS[C@H]12)c1csc(N)n1 [ceftriaxone],% S,90%
same,MIC50,1 µg/mL
same,MIC90,8 µg/mL
same,MIC range,≤0.008 to 64 µg/mL
